In ChEMBL document CHEMBL3734671, “Design and synthesis of an in vivo-efficacious PIM3 kinase inhibitor as a candidate anti-pancreatic cancer agent” (Bioorg Med Chem Lett, 2015):
≈ marks a conversion by molar mass, not a printed value.

Columns and labels:
[1] = Growth inhibition of human L3.6PL cells after 72 hrs by CCK-8 assay; assay type: functional
[2] = target: Epidermal growth factor receptor (Homo sapiens) (UniProt P00533); test: Inhibition of EGFR (unknown origin) at 200 nM by electrophoretic mobility shift assay
[3] = target: Tyrosine-protein kinase SYK (Homo sapiens) (UniProt P43405); test: Inhibition of SYK (unknown origin) at 200 nM by electrophoretic mobility shift assay
[4] = Antitumor activity against human PCI66 cells xenografted in BALB/c nu/nu mouse assessed as reduction in tumor volume at 30 mg/kg, ip qd dosed for 5 days followed by 2 days cessation measured 33 days after tumor inoculation relative to control; assay type: functional
[5] = target: Serine/threonine-protein kinase pim-2 (Homo sapiens, UniProt Q9P1W9); test: Inhibition of PIM2 (unknown origin) at 200 nM by electrophoretic mobility shift assay
[6] = target: Serine/threonine-protein kinase Nek2 (Homo sapiens) (UniProt P51955); test: Inhibition of NEK2 (unknown origin) at 200 nM by electrophoretic mobility shift assay
[7] = target: Vascular endothelial growth factor receptor 2 (Homo sapiens) (UniProt P35968); test: Inhibition of KDR (unknown origin) at 200 nM by electrophoretic mobility shift assay
hERG (KCNH2) = hERG (KCNH2) (Homo sapiens, UniProt Q12809); test: Inhibition of human ERG at 10 uM by patch-clamp method
[8] = target: T1, Glycogen synthase kinase-3 beta (Homo sapiens, UniProt P49841); test: Inhibition of GSK3beta (unknown origin) by electrophoretic mobility shift assay
[9] = target: Interleukin-1 receptor-associated kinase 4 (Homo sapiens) (UniProt Q9NWZ3); test: Inhibition of IRAK4 (unknown origin) at 200 nM by electrophoretic mobility shift assay
Sequence of Interleukin-1 receptor-associated kinase 4 (Homo sapiens) (Q9NWZ3 whole entry): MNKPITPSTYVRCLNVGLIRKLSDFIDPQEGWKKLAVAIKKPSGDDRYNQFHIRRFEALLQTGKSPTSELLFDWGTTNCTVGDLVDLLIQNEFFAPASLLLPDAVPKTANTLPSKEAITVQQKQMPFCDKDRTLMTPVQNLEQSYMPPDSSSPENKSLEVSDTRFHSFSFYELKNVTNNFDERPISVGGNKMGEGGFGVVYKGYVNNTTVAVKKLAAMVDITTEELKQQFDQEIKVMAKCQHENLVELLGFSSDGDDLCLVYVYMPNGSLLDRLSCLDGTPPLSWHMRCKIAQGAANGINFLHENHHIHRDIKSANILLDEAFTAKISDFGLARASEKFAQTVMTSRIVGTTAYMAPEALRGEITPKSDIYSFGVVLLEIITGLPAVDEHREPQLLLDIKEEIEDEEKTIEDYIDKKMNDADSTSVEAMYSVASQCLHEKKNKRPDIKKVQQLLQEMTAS

[10] = target: Mitogen-activated protein kinase kinase kinase 9 (Homo sapiens) (UniProt P80192); test: Inhibition of MLK1 (unknown origin) at 200 nM by ELISA
CYP2D6 = CYP2D6 (Homo sapiens, UniProt P10635); test: Inhibition of CYP2D6 (unknown origin) at 10 uM; assay type: ADME
Sequence of CYP2D6 (P10635 whole entry): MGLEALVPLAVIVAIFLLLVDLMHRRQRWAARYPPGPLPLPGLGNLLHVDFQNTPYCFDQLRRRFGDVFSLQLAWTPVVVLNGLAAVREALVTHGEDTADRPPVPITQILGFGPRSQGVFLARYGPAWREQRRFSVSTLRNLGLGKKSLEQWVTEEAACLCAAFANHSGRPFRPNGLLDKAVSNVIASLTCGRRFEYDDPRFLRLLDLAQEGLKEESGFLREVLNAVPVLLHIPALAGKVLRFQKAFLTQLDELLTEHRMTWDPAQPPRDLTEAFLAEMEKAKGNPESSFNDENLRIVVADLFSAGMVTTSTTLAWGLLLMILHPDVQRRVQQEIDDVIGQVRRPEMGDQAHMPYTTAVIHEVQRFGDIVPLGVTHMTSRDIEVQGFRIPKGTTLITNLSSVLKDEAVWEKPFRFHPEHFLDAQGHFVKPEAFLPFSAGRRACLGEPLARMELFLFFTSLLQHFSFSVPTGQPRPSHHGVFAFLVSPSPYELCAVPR

[11] = target: Serine/threonine-protein kinase 4 (Homo sapiens) (UniProt Q13043); test: Inhibition of MST1 (unknown origin) at 200 nM by electrophoretic mobility shift assay
Sequence of Serine/threonine-protein kinase 4 (Homo sapiens) (Q13043 whole entry): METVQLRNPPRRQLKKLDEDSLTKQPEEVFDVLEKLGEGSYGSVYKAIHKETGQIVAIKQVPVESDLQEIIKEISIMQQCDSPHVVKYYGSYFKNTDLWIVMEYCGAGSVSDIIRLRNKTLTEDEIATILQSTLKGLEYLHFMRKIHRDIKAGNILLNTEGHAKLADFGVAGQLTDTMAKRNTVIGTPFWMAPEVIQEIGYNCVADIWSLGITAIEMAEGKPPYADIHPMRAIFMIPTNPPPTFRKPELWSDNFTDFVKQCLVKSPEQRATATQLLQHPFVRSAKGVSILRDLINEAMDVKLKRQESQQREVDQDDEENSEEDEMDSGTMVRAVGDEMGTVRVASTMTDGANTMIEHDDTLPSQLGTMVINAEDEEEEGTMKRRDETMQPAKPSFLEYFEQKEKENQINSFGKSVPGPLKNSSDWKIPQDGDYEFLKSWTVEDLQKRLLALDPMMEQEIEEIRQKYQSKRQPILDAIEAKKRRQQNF

[12] = target: Proto-oncogene tyrosine-protein kinase Src (Homo sapiens) (UniProt P12931); test: Inhibition of SRC (unknown origin) at 200 nM by electrophoretic mobility shift assay
Sequence of Proto-oncogene tyrosine-protein kinase Src (Homo sapiens) (P12931 2-536 limits assumed): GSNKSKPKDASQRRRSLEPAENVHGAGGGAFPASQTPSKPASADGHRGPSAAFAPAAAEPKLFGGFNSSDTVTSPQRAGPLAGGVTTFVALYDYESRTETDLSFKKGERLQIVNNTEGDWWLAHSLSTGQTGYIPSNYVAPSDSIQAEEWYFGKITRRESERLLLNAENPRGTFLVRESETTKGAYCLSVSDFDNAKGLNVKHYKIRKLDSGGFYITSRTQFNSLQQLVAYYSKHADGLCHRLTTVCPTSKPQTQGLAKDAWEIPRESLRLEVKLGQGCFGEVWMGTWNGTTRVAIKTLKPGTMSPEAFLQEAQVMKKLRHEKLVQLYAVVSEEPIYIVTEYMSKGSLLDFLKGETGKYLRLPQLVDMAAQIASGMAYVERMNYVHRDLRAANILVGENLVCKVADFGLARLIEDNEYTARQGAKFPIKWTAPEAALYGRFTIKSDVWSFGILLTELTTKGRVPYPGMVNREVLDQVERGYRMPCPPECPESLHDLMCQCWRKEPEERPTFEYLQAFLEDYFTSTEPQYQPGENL

Mus musculus = test: Toxicity in BALB/c nu/nu mouse xenografted with human PCI66 cells assessed as affect on body weight at 30 mg/kg, ip qd dosed for 5 days followed by 2 days cessation measured 33 days after tumor inoculation; assay type: organism-based; settings: in vivo, 792 h
[13] = target: Casein kinase I isoform epsilon (Homo sapiens) (UniProt P49674); test: Inhibition of CK1 epsilon (unknown origin) at 200 nM by electrophoretic mobility shift assay
[14] = target: Serine/threonine-protein kinase pim-3 (Homo sapiens, UniProt Q86V86); test: Inhibition of PIM3 (unknown origin) using FL-Peptide 1 (5-FAM-AKRRRLSSLRA-COOH) substrate incubated for 2 hrs by electrophoretic mobility shift assay
[15] = target: Protein kinase C alpha type (Homo sapiens) (UniProt P17252); test: Inhibition of PKCalpha (unknown origin) at 200 nM by electrophoretic mobility shift assay
[16] = target: RAC-alpha serine/threonine-protein kinase (Homo sapiens) (UniProt P31749); test: Inhibition of AKT1 (unknown origin) at 200 nM by electrophoretic mobility shift assay
[17] = target: Tyrosine-protein kinase receptor TYRO3 (Homo sapiens) (UniProt Q06418); test: Inhibition of TYRO3 (unknown origin) at 200 nM by electrophoretic mobility shift assay
Sequence of Tyrosine-protein kinase receptor TYRO3 (Homo sapiens) (Q06418 whole entry): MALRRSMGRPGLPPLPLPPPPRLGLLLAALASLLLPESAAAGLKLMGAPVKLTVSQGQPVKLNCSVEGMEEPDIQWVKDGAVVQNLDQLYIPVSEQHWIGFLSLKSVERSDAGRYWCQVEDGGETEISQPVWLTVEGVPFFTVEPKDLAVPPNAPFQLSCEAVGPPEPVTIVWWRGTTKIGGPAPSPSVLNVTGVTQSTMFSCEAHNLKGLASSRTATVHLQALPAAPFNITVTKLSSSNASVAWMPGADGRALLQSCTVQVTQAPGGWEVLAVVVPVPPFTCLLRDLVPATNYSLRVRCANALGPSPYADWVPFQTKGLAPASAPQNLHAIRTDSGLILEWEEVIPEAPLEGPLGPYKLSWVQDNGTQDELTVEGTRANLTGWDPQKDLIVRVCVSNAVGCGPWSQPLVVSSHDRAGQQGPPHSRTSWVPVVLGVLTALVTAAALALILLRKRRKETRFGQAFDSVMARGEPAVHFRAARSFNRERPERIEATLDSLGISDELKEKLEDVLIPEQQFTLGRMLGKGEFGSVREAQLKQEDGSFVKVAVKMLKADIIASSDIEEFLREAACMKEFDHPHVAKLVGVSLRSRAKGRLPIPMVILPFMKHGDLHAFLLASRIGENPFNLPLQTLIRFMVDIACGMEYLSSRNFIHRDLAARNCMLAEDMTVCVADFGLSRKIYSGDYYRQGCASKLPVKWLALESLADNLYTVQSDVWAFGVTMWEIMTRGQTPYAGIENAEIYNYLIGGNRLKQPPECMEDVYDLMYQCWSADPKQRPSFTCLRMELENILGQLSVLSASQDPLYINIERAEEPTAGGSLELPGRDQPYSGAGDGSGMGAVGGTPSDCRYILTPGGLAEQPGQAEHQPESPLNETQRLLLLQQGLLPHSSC

[18] = target: Tyrosine-protein kinase Lck (Homo sapiens) (UniProt P06239); test: Inhibition of LCK (unknown origin) at 200 nM by electrophoretic mobility shift assay
[19] = target: Death-associated protein kinase 1 (Homo sapiens, UniProt P53355); test: Inhibition of DAPK1 (unknown origin) by electrophoretic mobility shift assay
[20] = Growth inhibition of human MIAPaCa2 cells after 72 hrs by CCK-8 assay; assay type: functional, cell-based; settings: MIA PaCa-2, 72 h
[21] = target: High affinity nerve growth factor receptor (Homo sapiens) (UniProt P04629); test: Inhibition of TRKA (unknown origin) at 200 nM by electrophoretic mobility shift assay
Sequence of High affinity nerve growth factor receptor (Homo sapiens) (P04629 33-796 limits assumed): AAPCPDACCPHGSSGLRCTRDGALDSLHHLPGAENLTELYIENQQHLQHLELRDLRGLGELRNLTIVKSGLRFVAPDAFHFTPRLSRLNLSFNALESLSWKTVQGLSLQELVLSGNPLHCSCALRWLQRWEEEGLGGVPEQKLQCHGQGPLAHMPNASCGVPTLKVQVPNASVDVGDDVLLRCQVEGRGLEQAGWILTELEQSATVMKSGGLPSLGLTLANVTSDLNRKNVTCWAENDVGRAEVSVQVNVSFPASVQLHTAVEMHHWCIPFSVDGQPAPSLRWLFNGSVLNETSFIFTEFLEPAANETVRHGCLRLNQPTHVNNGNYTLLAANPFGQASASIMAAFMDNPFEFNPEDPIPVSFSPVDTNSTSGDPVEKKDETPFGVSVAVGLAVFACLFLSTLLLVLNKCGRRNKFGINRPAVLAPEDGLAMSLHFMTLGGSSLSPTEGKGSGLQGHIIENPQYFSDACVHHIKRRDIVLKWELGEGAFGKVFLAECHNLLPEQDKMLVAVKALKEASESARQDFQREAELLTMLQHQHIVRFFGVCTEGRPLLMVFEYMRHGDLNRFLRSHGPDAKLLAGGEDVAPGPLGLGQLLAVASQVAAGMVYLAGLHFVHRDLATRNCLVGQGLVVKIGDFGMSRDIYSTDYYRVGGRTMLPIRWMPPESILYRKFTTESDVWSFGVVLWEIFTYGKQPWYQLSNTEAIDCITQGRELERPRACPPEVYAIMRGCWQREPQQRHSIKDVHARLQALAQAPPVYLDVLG

[22] = Aqueous solubility in PBS buffer solution at pH 7.4; assay type: physicochemical
[23] = target: AMP-activated protein kinase, AMPK (Homo sapiens) (UniProt P54646+O43741+P54619+Q9UGJ0+Q9Y478+Q13131+Q9UGI9); test: Inhibition of AMPKalpha1/beta1/gama1 (unknown origin) at 200 nM by electrophoretic mobility shift assay; assay type: protein-complex assay
[24] = target: T1, Glycogen synthase kinase-3 beta; test: Inhibition of GSK3beta (unknown origin) at 200 nM by electrophoretic mobility shift assay
[25] = target: CDK2/Cyclin A2 (Homo sapiens) (UniProt P24941+P20248); test: Inhibition of CDK2/CycA2 (unknown origin) at 200 nM by electrophoretic mobility shift assay; assay type: protein-complex assay
[26] = Growth inhibition of human PCI66 cells after 72 hrs by CCK-8 assay; assay type: functional, cell-based; settings: PCI66, 72 h
[27] = target: Ephrin type-B receptor 4 (Homo sapiens) (UniProt P54760); test: Inhibition of EPHB4 (unknown origin) at 200 nM by electrophoretic mobility shift assay
[28] = target: Angiopoietin-1 receptor (Homo sapiens) (UniProt Q02763); test: Inhibition of TIE2 (unknown origin) at 200 nM by electrophoretic mobility shift assay
[29] = target: Serine/threonine-protein kinase pim-1 (Homo sapiens, UniProt P11309); test: Inhibition of PIM1 (unknown origin) by electrophoretic mobility shift assay
[30] = target: Inhibitor of nuclear factor kappa-B kinase subunit beta (Homo sapiens) (UniProt O14920); test: Inhibition of IKKbeta (unknown origin) at 200 nM by electrophoretic mobility shift assay
[31] = target: Insulin-like growth factor 1 receptor (Homo sapiens) (UniProt P08069); test: Inhibition of IGF1R (unknown origin) at 200 nM by electrophoretic mobility shift assay
Sequence of Insulin-like growth factor 1 receptor (Homo sapiens) (P08069 31-736 limits assumed): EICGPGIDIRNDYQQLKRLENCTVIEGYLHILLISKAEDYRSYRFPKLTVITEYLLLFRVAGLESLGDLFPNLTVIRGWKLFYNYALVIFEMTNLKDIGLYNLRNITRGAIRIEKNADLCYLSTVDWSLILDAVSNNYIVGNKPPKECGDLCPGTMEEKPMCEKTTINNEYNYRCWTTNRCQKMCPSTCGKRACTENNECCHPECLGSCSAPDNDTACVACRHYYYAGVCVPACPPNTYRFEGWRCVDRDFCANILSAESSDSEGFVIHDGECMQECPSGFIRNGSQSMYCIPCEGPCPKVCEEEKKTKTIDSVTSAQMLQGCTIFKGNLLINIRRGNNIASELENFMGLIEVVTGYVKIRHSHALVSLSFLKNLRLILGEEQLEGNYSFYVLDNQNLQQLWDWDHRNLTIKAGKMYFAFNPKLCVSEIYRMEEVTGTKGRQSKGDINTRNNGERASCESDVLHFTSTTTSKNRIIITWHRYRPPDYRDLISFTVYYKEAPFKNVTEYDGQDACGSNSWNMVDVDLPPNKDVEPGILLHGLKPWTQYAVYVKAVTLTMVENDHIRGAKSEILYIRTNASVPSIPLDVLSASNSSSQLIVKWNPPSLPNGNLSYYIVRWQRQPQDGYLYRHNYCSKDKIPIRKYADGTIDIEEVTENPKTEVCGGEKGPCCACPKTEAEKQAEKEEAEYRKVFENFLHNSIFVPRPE
Sequence of Insulin-like growth factor 1 receptor (Homo sapiens) (P08069 741-1367 limits assumed): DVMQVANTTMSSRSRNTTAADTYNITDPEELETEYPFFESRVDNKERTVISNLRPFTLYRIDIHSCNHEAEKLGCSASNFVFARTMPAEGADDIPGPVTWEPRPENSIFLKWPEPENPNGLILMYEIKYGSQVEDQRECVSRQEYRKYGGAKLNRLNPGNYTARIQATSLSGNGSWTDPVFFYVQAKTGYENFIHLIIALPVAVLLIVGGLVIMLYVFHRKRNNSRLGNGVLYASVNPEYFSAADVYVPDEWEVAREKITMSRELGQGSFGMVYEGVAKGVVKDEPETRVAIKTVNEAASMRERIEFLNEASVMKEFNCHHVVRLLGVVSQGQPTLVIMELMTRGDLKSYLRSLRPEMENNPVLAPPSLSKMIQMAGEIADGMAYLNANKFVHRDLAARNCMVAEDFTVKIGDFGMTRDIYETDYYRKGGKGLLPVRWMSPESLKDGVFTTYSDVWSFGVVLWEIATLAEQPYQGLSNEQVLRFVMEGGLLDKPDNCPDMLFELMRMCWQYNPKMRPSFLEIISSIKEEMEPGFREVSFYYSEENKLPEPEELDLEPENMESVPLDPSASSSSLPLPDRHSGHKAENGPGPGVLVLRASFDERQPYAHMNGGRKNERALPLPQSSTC

[32] = Growth inhibition of human PCI35 cells after 72 hrs by CCK-8 assay; assay type: functional, cell-based; settings: PCI35, 72 h
[33] = target: Calcium/calmodulin-dependent protein kinase type IV (Homo sapiens) (UniProt Q16566); test: Inhibition of CaMK4 (unknown origin) at 200 nM by electrophoretic mobility shift assay
Homo sapiens = organism: Homo sapiens; test: Inhibition of p70S6k (unknown origin) at 200 nM by electrophoretic mobility shift assay
[34] = target: MAP kinase-activated protein kinase 2 (Homo sapiens) (UniProt P49137); test: Inhibition of MAPKAPK2 (unknown origin) at 200 nM by electrophoretic mobility shift assay

With `COc1ccc2c(c1C(C)N1CCNCC1)O/C(=C\c1n[nH]c3ncccc13)C2=O` (stereo unspecified) the IC50 [1] was 6.3 µM, the inhibition [2] was -1% and the inhibition [3] was 5.3%. The inhibition in vivo at 30 mg/kg [4] was 52.5%, the inhibition [5] was 30.2% and the inhibition [6] was -4%. It also gave an inhibition [7] of 2%, an inhibition at 10 µM (hERG (KCNH2)) of 34% and an IC50 [8] of 0.0061 µM. For the same molecule, the inhibition [9] was -0.6%, the inhibition [10] was -1.8% and the inhibition at 10 µM (CYP2D6) was 14%. For the same molecule, the inhibition [11] was -7.4%, the inhibition [12] was 0.7% and the Activity (Mus musculus) was “Non-toxic”. It also gave an inhibition [13] of -0.5%, an IC50 [14] of 0.0025 µM and an inhibition [15] of 83.6%. For the same molecule, the inhibition [16] was 1.7%, the inhibition [17] was 3.5% and the inhibition [18] was 0.1%. For the same molecule, the IC50 [19] was 0.012 µM, the IC50 [20] was 3.5 µM and the inhibition [21] was 10.3%. For the same molecule, the solubility [22] was 558 µM (≈ 226 µg/mL), the inhibition [23] was 8.6% and the inhibition [24] was 95%. It also gave an inhibition [25] of 13.7%, an IC50 [26] of 3.8 µM and an inhibition [27] of 9.4%. The inhibition [28] was 0.8%, the IC50 [29] was 0.0019 µM and the inhibition [30] was -2.8%. The inhibition [31] was 1.1%, the IC50 [32] was 5.1 µM and the inhibition [33] was -1.5%. It also gave an inhibition (Homo sapiens) of 47.3%.

With `COc1ccc2c(c1CN1CCNCC1)O/C(=C\c1n[nH]c3ncccc13)C2=O` the inhibition [2] was -8%, the inhibition [3] was -7.5% and the inhibition [5] was 28.4%. The inhibition [6] was -2.1%, the inhibition [7] was -5% and the inhibition at 10 µM (hERG (KCNH2)) was 34%. The inhibition [9] was -3.8%, the inhibition [10] was -3.4% and the inhibition at 10 µM (CYP2D6) was 23%. The inhibition [11] was -2.3%, the inhibition [12] was -0.9% and the inhibition [13] was 3.1%. The IC50 [14] was 0.0018 µM, the inhibition [15] was 82.5% and the inhibition [16] was -0.2%. The inhibition [34] was -1.2%, the inhibition [17] was -2.7% and the inhibition [18] was -5.2%. It also gave an inhibition [21] of 1.8%, a solubility [22] of 182 µM (≈ 71.2 µg/mL) and an inhibition [23] of 1.3%. For the same molecule, the inhibition [24] was 76.5%, the inhibition [25] was 28.2% and the inhibition [27] was -3.1%. It also gave an inhibition [28] of 0%, an inhibition [30] of 4.1% and an inhibition [31] of -3%. For the same molecule, the inhibition [33] was -4.6% and the inhibition (Homo sapiens) was 66.5%.
